From patent US20250223306A1, “TEAD INHIBITORS AND METHODS OF USE” (Sporos BioDiscovery, Inc., priority 2022, published 2025)

Assays:
LOU-NH91 cells = experiment: LOU-NH91 proliferation and cell viability assay (CTG); format: cell-based; conditions: LOU-NH91 cell line, 216 hours
Method: LOU-NH91 cells were trypsinised, counted and plated at the specified cell density in 200 μl of growth media in 96 well flat bottom tissue culture treated plates. The plated cells were incubated overnight at 37° C., 5% CO2 before being treated with compounds in triplicate for each assay point. 50 μl of the serially diluted compound was added to each well giving a final DMSO concentration of 0.5% per well and a total volume of 250 μl per well. The treated cells were incubated for 216 hours (9 days) at 37° C., 5% CO2. Following compound treatment, the remaining viable cells were detected using the Promega CellTiter-Glo 2.0 assay as follows: 150 μl of media was removed from each of the wells to be assayed and 100 μl of room temperature CellTiter-Glo 2.0 reagent was added. The plate was placed on an orbital shaker at 500 rpm at room temperature for 2 minutes, and then incubated without shaking for a further 10 minutes at room temperature. 150 μl of cell lysate was removed from each well and dispensed into a single well of a white opaque 96 well plate. Luminescence at 545 nm was read using a BMG CLARIOstar plate reader. The luminescent signal was directly proportional to number of viable cells, the percent of viable cells relative to the DMSO control was then calculated for each assay point. Percent viability relative to DMSO control was plotted against compound concentration and a curve fitted with non-linear regression in GraphPad Prism software. EC50 and IC50 values were calculated using GraphPad Prism software as follows: For EC50 values a non-constrained four-parameter logistic curve fit was used (Sigmoidal, 4PL, X is concentration). For Absolute IC50 values the baseline was constrained to Y=0 (Absolute IC50, X is concentration). Area Under the Curve (AUC): Prism computes area-under-the-curve by the trapezoidal method. The analysis sees a fitted curve as simply a series of connected XY points. Prism simply computes the area under the “curve” defined by connecting the points by straight lines. The units of the AUC are the units of the Y axis times units of the X axis.

BHY cells = experiment: BHY proliferation and cell viability assay (CTG); format: cell-based; conditions: BHY cell line
Method: BHY cells were trypsinised, counted and plated at the specified cell density in 200 μl of growth media in 96 well flat bottom tissue culture treated plates. The plated cells were incubated overnight at 37° C., 5% CO2 before being treated with compounds in triplicate for each assay point. 50 μl of the serially diluted compound was added to each well giving a final DMSO concentration of 0.5% per well and a total volume of 250 μl per well. The treated cells were incubated for 144 hours (6 days) at 37° C., 5% CO2. Following compound treatment, the remaining viable cells were detected using the Promega CellTiter-Glo 2.0 assay as follows: 150 μl of media was removed from each of the wells to be assayed and 100 μl of room temperature CellTiter-Glo 2.0 reagent was added. The plate was placed on an orbital shaker at 500 rpm at room temperature for 2 minutes, and then incubated without shaking for a further 10 minutes at room temperature. 150 μl of cell lysate was removed from each well and dispensed into a single well of a white opaque 96 well plate. Luminescence at 545 nm was read using a BMG CLARIOstar plate reader. The luminescent signal was directly proportional to number of viable cells, the percent of viable cells relative to the DMSO control was then calculated for each assay point. Percent viability relative to DMSO control was plotted against compound concentration and a curve fitted with non-linear regression in GraphPad
Prism software. EC50 and IC50 values are calculated using GraphPad Prism software as follows: For EC50 values, a non-constrained four-parameter logistic curve fit was used (Sigmoidal, 4PL, X is concentration). For Absolute IC50 values the baseline was constrained to Y=0 (Absolute IC50, X is concentration). Area Under the Curve (AUC): Prism computes area-under-the-curve by the trapezoidal method. The analysis sees a fitted curve as simply a series of connected XY points. Prism simply computes the area under the “curve” defined by connecting the points by straight lines. The units of the AUC are the units of the Y axis times units of the X axis.

TEAD1 = TEAD1 (Homo sapiens, UniProt P28347); experiment: TEAD thermal shift assay (TSA); format: binding
TEAD1, sequence (P28347 whole entry): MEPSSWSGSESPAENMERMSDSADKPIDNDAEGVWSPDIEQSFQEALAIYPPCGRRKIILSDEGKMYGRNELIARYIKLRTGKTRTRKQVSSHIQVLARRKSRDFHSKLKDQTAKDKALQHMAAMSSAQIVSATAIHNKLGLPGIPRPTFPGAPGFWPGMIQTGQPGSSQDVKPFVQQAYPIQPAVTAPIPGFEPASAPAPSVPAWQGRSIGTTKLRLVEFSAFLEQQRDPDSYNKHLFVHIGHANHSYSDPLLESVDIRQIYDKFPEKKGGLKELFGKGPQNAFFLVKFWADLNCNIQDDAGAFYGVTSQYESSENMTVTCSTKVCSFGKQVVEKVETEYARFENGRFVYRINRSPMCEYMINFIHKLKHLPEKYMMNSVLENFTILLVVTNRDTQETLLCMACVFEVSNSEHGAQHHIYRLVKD
Description: (§1) Thermal shift assay (TSA) is a biophysical method to evaluate stability of proteins with change in temperature. The assay measures thermal denaturation temperature in varying conditions such as different drug concentration. For this example, fluorogenic dye was used that bind to unfolded proteins. SYPRO Orange binds non-specifically to hydrophobic surfaces, and water strongly quenches its fluorescence. When the protein unfolds, the exposed hydrophobic surfaces bind the dye, resulting in an increase in fluorescence by excluding water. Detergent micelles also bind the dye and increase background noise dramatically. Binding of small molecules to proteins leads to a stabilization against to thermal denaturation with the degree of thermal stabilization proportional to the strength of binding.
(§2) The study described in this example investigated the change in melting temperature (ΔTm) of TEAD isoforms 1˜4 when treated with TEAD inhibitors. Compound 1-1-a known strong TEAD1 and weak TEAD2 inhibitor; as well as Compound 1-4-a pan-TEAD inhibitor were used as controls.
(§3) Tris-HCL was dissolved in 5 mL of Cell culture grade water and allowed to dissolve completely. The pH was adjusted to 8 using NaOH. Additional assay buffer components were added in the order listed above. The buffer was mixed slowly.
(§4) Assay buffer was prepared according to the procedures outlined above and dispensed into test wells. Spyro orange was added to a concentration of 5× in the assay buffer, followed by test compound stock solution which was added to a concentration of 10 μM or 30 μM in the assay buffer.
(§5) The melt cycle was performed in Bio-RAD PCR instrument from 20-95° C. with ramp rate of 1° C./min.

TEAD3 = TEAD3 (Homo sapiens, UniProt Q99594); experiment: TEAD thermal shift assay (TSA); format: binding
TEAD3, sequence (Q99594 whole entry): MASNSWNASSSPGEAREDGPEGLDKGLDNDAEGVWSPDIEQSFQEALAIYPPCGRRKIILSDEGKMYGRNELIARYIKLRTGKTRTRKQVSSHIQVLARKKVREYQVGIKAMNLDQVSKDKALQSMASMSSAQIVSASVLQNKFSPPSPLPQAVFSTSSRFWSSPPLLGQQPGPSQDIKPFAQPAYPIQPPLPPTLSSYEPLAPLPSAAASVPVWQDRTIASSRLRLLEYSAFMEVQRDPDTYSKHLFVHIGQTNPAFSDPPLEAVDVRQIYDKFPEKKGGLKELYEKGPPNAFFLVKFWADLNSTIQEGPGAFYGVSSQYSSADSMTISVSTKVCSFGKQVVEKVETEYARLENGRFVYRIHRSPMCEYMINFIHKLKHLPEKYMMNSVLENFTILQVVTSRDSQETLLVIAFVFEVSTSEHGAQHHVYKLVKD
Description: as §1, §2, §3, §4, §5

TEAD2 = TEAD2 (Homo sapiens, UniProt Q15562); experiment: TEAD thermal shift assay (TSA); format: binding
TEAD2, sequence (Q15562 whole entry): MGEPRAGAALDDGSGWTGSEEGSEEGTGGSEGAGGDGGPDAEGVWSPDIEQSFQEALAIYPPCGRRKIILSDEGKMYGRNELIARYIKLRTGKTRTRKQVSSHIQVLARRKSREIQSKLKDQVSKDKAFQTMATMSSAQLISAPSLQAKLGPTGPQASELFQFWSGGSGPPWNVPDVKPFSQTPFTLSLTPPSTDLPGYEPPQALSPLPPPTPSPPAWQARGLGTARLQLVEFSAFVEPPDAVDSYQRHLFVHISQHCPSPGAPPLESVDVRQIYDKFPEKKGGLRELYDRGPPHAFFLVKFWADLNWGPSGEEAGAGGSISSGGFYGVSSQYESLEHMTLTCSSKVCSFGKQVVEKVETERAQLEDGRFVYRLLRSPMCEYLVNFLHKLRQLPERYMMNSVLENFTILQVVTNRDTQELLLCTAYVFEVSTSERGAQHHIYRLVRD
Description: as §1, §2, §3, §4, §5

TEAD4 = TEAD4 (Homo sapiens, UniProt Q15561); experiment: TEAD thermal shift assay (TSA); format: binding
TEAD4, sequence (Q15561 whole entry): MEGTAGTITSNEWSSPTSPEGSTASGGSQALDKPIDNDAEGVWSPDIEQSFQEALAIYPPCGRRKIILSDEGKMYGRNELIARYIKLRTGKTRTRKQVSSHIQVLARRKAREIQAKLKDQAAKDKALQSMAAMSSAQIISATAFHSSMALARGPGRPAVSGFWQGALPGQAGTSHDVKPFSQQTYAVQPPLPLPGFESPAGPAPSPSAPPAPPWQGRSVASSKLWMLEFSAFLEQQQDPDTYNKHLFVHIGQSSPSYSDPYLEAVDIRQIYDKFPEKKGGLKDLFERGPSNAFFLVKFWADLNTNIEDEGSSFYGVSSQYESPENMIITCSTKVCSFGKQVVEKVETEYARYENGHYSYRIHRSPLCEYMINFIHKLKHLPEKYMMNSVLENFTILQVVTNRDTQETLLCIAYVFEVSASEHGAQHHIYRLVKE
Description: as §1, §2, §3, §4, §5

NCI-H226 xenograft = experiment: Inhibition of mouse xenograft NCI-H226 tumors; format: in vivo, BALB/c nude mice; conditions: Day 27; 3 mg/kg, p.o., QD
Description: This study evaluated the in vivo therapeutic efficacy of TEAD inhibitors in the treatment of the subcutaneous lung cancer NCI-H226 xenograft model in female BALB/c nude mice.
• ANOVA Analysis of variance • BW Body weight • BWL Body weight loss • FFPE Formalin fixed paraffin embedded • IACUC Institutional animal care and use committee • MTV Mean tumor volume • N/A Not available or not applicable • p.o. Oral (ly) • QD Once a day • REG REG=[(T0−Ti)/T0]×100%; • Ti as the mean tumor volume of the treatment group on the measurement day; • T0 as the mean tumor volume of the treatment group on Day 0. • ROA Route of administration • RT Room temperature • RTV Relative tumor volume • SD Standard deviation • SEM Standard error of mean • SOC Standard of care used in clinical setting for a specific disease • TBD To be determined • T/C The Ti/Ci value (%): T/C %=Ti/Ci×100; • Ti and Ci are the mean tumor volumes of the treatment and control groups, respectively, on a given day. • TGI Tumor growth inhibition; TGI %=(1−Ti/Ci)×100; • Ti and Ci are the mean tumor volumes of the treatment and control groups, respectively, on a given day. • TV Tumor volume • PK/PD Pharmacokinetics/Pharmacodynamics • ΔInhibition Mean % ΔInhibition=((Ci−C0)−(Ti−T0))/(Ci−C0)*100% • Ti and Ci are the mean tumor volumes of the treatment and control groups, respectively, on a given day. T0 and C0 as the mean tumor volumes of the treatment and vehicle groups on Day 0.
• Species Mus musculus • Strain Balb/c nude • Supplier GemPharmatech Co., Ltd • Gender Female • No. of Animals Ordered 68 (45 plus 23 spare) • No. of Animals Assigned 45 • to Study • Average Age of Animals 6-8 weeks • at Study Initiation
The NCI-H226 cells (CL-00364) cancer cells were maintained in vitro with RPMI1640 medium supplemented with 10% fetal bovine serum at 37° C. in an atmosphere of 5% CO2 in the air. The cells in exponential growth phase were harvested and quantitated by cell counter before tumor inoculation.
Each mouse was inoculated subcutaneously in the right front flank region with NCI-H226 tumor cells (1×10^7) in 0.2 ml of PBS mixed with Matrigel (1:1) for tumor development.
The randomization was performed when the mean tumor size reached 138.81 mm^3. 45 mice were enrolled in the study. All animals were randomly allocated to 9 study groups, 5 mice in each group. Randomization was performed based on “Matched distribution” method/“Stratified” method (StudyDirector™ software, version 3.1.399.19)/randomized block design. The date of randomization was denoted as day 0.
The treatment was initiated on the same day of randomization (day 0) per study design.
After tumor cells inoculation, the animals were checked daily for morbidity and mortality. During routine monitoring, the animals were checked for any effects of tumor growth and treatments on behavior such as mobility, food and water consumption, body weight gain/loss (Body weights were measured twice per week after randomization), eye/hair matting and any other abnormalities. Mortality and observed clinical signs were recorded for individual animals in detail.
Tumor volumes were measured twice per week after randomization in two dimensions using a caliper, and the volume was expressed in mm^3 using the formula: “V=(L×W×W)/2, where V is tumor volume, L is tumor length (the longest tumor dimension) and W is tumor width (the longest tumor dimension perpendicular to L). Dosing as well as tumor and body weight measurements were conducted in a Laminar Flow Cabinet.
To compare tumor volumes of different groups at a pre-specified day, Bartlett's test was first used to check the assumption of homogeneity of variance across all groups. When the p-value of Bartlett's test was >=0.05, one-way ANOVA was performed to test overall equality of means across all groups. […]

SDM103T2 cells = experiment: SDM103T2 proliferation and cell viability assay (CTG); format: cell-based; conditions: SDM103T2 cell line, 144 hours
Method: SDM103T2 cells were trypsinised, counted and plated at the specified cell density in 200 μl of growth media in 96 well flat bottom tissue culture treated plates. The plated cells were incubated overnight at 37° C., 5% CO2 before being treated with compounds in triplicate for each assay point. 50 μl of the serially diluted compound was added to each well giving a final DMSO concentration of 0.5% per well and a total volume of 250 μl per well. The treated cells were incubated for 144 hours (6 days) at 37° C., 5% CO2. Following compound treatment the remaining viable cells were detected using the Promega CellTiter-Glo 2.0 assay as follows: 150 μl of media was removed from each of the wells to be assayed and 100 μl of room temperature CellTiter-Glo 2.0 reagent was added. The plate was placed on an orbital shaker at 500 rpm at room temperature for 2 minutes, and then incubated without shaking for a further 10 minutes at room temperature. 150 μl of cell lysate was removed from each well and dispensed into a single well of a white opaque 96 well plate. Luminescence at 545 nm was read using a BMG CLARIOstar plate reader. The luminescent signal was directly proportional to number of viable cells, the percent of viable cells relative to the DMSO control was then calculated for each assay point. Percent viability relative to DMSO control was plotted against compound concentration and a curve fitted with non-linear regression in GraphPad Prism software. EC50 and IC50 values were calculated using GraphPad Prism software as follows: For EC50 values a non-constrained four-parameter logistic curve fit was used (Sigmoidal, 4PL, X is concentration). For Absolute IC50 values the baseline was constrained to Y=0 (Absolute IC50, X is concentration). Area Under the Curve (AUC): Prism computes area-under-the-curve by the trapezoidal method. The analysis sees a fitted curve as simply a series of connected XY points. Prism simply computes the area under the “curve” defined by connecting the points by straight lines. The units of the AUC are the units of the Y axis times units of the X axis.

[1] = ratio of protein to compound 1:1
[2] = ratio of protein to compound 1:3

| SMILES | EC50 (LOU-NH91 cells) [nM] | EC50 (BHY cells; 144 h) [nM] | TEAD1 ΔTm (TEAD1; [1]) [°C] | TEAD1 ΔTm (TEAD1; [2]) [°C] | TEAD3 ΔTm (TEAD3; [1]) [°C] | TEAD2 ΔTm (TEAD2; [1]) [°C] | TEAD4 ΔTm (TEAD4; [1]) [°C] | TEAD4 ΔTm (TEAD4; [2]) [°C] | EC50 (BHY cells; 144 hours) [nM] | other results |
| --- | --- | --- | --- | --- | --- | --- | --- | --- | --- | --- |
| C[C@H](CO)NC(=O)c1cnc2c(C3=CCC(C(F)(F)F)CC3)cccc2c1 (single isomer, unassigned) [Compound 81] | < 200 | < 200 | 9 | 10 | 4 | 2 | 5 | 7 | – | TEAD3 ΔTm (TEAD3; [2]): 5 °C; TEAD2 ΔTm (TEAD2; [2]): 3 °C |
| C[C@H](CO)NC(=O)c1cnc2c(C3=CCC(C(F)(F)F)CC3)cccc2c1 (single isomer, unassigned) [Compound 82] | < 200 | – | – | – | – | – | – | – | 200 to 1000 | – |
| COC[C@H](CO)NC(=O)c1cnc2c(C3=CCC(C(F)(F)F)CC3)cccc2c1 (single isomer, unassigned) [Compound 103] | < 200 | < 200 | – | – | – | – | – | – | – | – |
| COC[C@H](CO)NC(=O)c1cnc2c(C3=CCC(C(F)(F)F)CC3)cccc2c1 (single isomer, unassigned) [Compound 104] | < 200 | – | – | – | – | – | – | – | < 200 | – |
| CNS(=O)(=O)c1ccc(Nc2ccc(C(F)(F)F)cc2)c(-c2cn(C)cn2)c1 [Compound 1-1, reference compound] | – | – | 2 | 8 | 0 | 1 | 0 | 1 | – | T/C (NCI-H226 xenograft): 12.51%; TGI (NCI-H226 xenograft): 87.49%; Tumor Volume (mean ± SEM) (NCI-H226 xenograft): 66.85 ± 12.17 mm^3; thermal shift / binding across TEAD isoforms, in words (TEAD1; summary of Table 14 over TEAD1-4): pronounced thermal shift only for TEAD1; EC50 (SDM103T2 cells): < 200 nM |
